From ChEMBL document CHEMBL2029286, “Trisubstituted imidazoles as Mycobacterium tuberculosis glutamine synthetase inhibitors” (J Med Chem, 2012) come the findings set out here.

Each structure is given as a SMILES string. Values after ≈ are worked out from the molar mass of the structure shown. Where only a bound is given, the exact number is not on record here.

A short description of assay [1]: Inhibition of Mycobacterium tuberculosis H37Rv glutamine synthetase expressed in Escherichia coli GJ4745 after 1 hr.
The subject of assay [2] is Mycobacterium tuberculosis. In words: Antitubercular activity against Mycobacterium tuberculosis H37Rv ATCC 27294 after 5 days by resazurin microtitre assay. The assay is classed as functional. As to conditions: H37Rv ATCC 27294, 120 h. (In general: Resazurin is reduced to fluorescent resorufin, in cell work by metabolically active cells.)
Assay [3] can be described thus: Selectivity ratio of IC50 for human A549 cells to MIC for Mycobacterium tuberculosis H37Rv ATCC 27294. It counts as functional.
In assay [4] the test system is A549. In words: Cytotoxicity against human A549 cells after 72 hrs by resazurin reduction assay. The assay is classed as cell-based. Conditions: A549, 72 h.

As for `COc1ccc2cc(-c3nc(C(C)(C)C)[nH]c3-c3ccncc3)ccc2c1`, the IC50 in assay [1] amounted to 3.1 µM. This compound yielded a minimal inhibitory concentration (MIC) in assay [2] of more than 32 µg/mL.

For `COc1ccc2cc(-c3nc(C(C)(C)C)[nH]c3-c3ccccc3)ccc2c1`, in assay [1], the IC50 was more than 25 µM.

For `COc1ccc2cc(-c3nc(C(C)(C)C)[nH]c3-c3ncccn3)ccc2c1`, in assay [1], the concentration for half-maximal inhibition (IC50) is more than 25 µM.

In the case of `COc1ccc2cc(-c3nc(C(C)(C)C)[nH]c3-c3cncnc3)ccc2c1`, in assay [1], the IC50 was more than 25 µM.

In the case of `CCc1nc(-c2ccc3cc(OC)ccc3c2)c(-c2ccncc2)[nH]1`, the IC50 in assay [1] was 2.2 µM. In addition, the MIC in assay [2] was more than 32 µg/mL.

Consider `COc1ccc2cc(-c3nc(C)[nH]c3-c3ccncc3)ccc2c1`, for which the IC50 in assay [1] was more than 25 µM.

As for `COc1ccc2cc(-c3nc[nH]c3-c3ccncc3)ccc2c1`, the IC50 in assay [1] is more than 25 µM.

The compound `COc1ccc2cc(-c3nc(COCc4ccccc4)[nH]c3-c3ccncc3)ccc2c1` gave an IC50 in assay [1] of more than 25 µM.

In turn, `COc1ccc2cc(-c3nc(CO)[nH]c3-c3ccncc3)ccc2c1` yielded an IC50 in assay [1] of more than 25 µM.

Regarding `COc1ccc2cc(-c3nc(C(C)(C)c4ccccc4)[nH]c3-c3ccncc3)ccc2c1`, the IC50 in assay [1] is more than 25 µM.

Turning to `COc1ccc2cc(-c3nc(-c4cccc(O)c4)[nH]c3-c3ccncc3)ccc2c1`, the IC50 in assay [1] is more than 25 µM.

Regarding `COc1ccc2cc(-c3nc(-c4ccc[nH]4)[nH]c3-c3ccncc3)ccc2c1`, in assay [1], the IC50 was more than 25 µM.

In assay [1], `COc1ccc2cc(-c3nc(C(C)(C)C)[nH]c3-c3ccnc(F)c3)ccc2c1` returned a 50% inhibitory concentration (IC50) of 1.2 µM. The same compound returned an MIC in assay [2] of 64 µg/mL (≈ 170 µM).

`COc1ccc2cc(-c3nc(C(C)(C)C)[nH]c3-c3ccnc(N)c3)ccc2c1`: the “Ratio IC50” value in assay [3] came to 5. In assay [2], this compound returned an MIC of 2 µg/mL (≈ 5.37 µM). This compound showed an IC50 in assay [4] of 24.7 µM.

In the case of `CNc1cc(-c2[nH]c(C(C)(C)C)nc2-c2ccc3cc(OC)ccc3c2)ccn1`, the 50% inhibitory concentration (IC50) in assay [1] stood at 5.2 µM. Also, 8 µg/mL (≈ 20.7 µM) was the least that counted as inhibitory in assay [2] (MIC).

In assay [1], `COc1ccc2cc(-c3nc(C(C)(C)C)[nH]c3-c3ccnc(N(C)C)c3)ccc2c1` yielded a half-maximal inhibitory concentration (IC50) of more than 25 µM.

In assay [2], `CC(C)(C)c1nc(-c2cnc3ccccc3c2)c(-c2ccncc2)[nH]1` registered an MIC of more than 32 µg/mL.

As to `COc1ccc2cc(-c3nc(-c4ccccc4)[nH]c3-c3ccncc3)ccc2c1`, the IC50 in assay [1] is more than 25 µM.

The IC50 is the point on the concentration scale where inhibition reaches its midpoint. In general, MIC refers to the least concentration at which growth counts as inhibited. A lower MIC goes with a more susceptible organism.
